Series [1] addresses T1, NaV1.6 (Homo sapiens (Human), UniProt Q9UQD0). Put plainly: Sodium Influx Assay (Flux), NaV1.6.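 Further: Tetracycline-induced cells, compounds applied for one hour at room temperature with modulators holding channels open, IC50 from percent inhibition of sodium influx.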 The class given is cell-based. Conditions: Trex HEK293 cells, ANG2 dye, inactivated state.
Series [2] addresses T2, NaV1.1 (Homo sapiens (Human), UniProt P35498). Put plainly: Sodium Influx Assay (Flux), NaV1.1.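 Further: channels co-expressed with human β1 subunit and held open by modulators, cells exposed to compounds for one hour at room temperature, IC50 from percent inhibition of influx.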 The class given is cell-based. As to conditions: Trex HEK293 cells, ANG2 dye, inactivated state.
In series [3] the target is T1, NaV1.6. Put plainly: Electrophysiological Assay (EP), patch voltage clamp, NaV1.6.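 Further: sodium current recorded at ambient temperature, channels held inactivated then briefly repolarized to −150 mV for 20 ms before a test pulse, control currents in 0.5% DMSO.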 It counts as cell-based. Conditions: HEK-293 cells, whole-cell patch clamp. In general terms: Patch clamp records ionic current or voltage across a cell membrane.
The target in another series is NaV1.5 (Homo sapiens (Human), UniProt Q14524). Kind of series: Sodium Influx Assay (Flux), NaV1.5.
NaV1.5, sequence (Q14524 other isoform, or with tags, fused parts or gaps): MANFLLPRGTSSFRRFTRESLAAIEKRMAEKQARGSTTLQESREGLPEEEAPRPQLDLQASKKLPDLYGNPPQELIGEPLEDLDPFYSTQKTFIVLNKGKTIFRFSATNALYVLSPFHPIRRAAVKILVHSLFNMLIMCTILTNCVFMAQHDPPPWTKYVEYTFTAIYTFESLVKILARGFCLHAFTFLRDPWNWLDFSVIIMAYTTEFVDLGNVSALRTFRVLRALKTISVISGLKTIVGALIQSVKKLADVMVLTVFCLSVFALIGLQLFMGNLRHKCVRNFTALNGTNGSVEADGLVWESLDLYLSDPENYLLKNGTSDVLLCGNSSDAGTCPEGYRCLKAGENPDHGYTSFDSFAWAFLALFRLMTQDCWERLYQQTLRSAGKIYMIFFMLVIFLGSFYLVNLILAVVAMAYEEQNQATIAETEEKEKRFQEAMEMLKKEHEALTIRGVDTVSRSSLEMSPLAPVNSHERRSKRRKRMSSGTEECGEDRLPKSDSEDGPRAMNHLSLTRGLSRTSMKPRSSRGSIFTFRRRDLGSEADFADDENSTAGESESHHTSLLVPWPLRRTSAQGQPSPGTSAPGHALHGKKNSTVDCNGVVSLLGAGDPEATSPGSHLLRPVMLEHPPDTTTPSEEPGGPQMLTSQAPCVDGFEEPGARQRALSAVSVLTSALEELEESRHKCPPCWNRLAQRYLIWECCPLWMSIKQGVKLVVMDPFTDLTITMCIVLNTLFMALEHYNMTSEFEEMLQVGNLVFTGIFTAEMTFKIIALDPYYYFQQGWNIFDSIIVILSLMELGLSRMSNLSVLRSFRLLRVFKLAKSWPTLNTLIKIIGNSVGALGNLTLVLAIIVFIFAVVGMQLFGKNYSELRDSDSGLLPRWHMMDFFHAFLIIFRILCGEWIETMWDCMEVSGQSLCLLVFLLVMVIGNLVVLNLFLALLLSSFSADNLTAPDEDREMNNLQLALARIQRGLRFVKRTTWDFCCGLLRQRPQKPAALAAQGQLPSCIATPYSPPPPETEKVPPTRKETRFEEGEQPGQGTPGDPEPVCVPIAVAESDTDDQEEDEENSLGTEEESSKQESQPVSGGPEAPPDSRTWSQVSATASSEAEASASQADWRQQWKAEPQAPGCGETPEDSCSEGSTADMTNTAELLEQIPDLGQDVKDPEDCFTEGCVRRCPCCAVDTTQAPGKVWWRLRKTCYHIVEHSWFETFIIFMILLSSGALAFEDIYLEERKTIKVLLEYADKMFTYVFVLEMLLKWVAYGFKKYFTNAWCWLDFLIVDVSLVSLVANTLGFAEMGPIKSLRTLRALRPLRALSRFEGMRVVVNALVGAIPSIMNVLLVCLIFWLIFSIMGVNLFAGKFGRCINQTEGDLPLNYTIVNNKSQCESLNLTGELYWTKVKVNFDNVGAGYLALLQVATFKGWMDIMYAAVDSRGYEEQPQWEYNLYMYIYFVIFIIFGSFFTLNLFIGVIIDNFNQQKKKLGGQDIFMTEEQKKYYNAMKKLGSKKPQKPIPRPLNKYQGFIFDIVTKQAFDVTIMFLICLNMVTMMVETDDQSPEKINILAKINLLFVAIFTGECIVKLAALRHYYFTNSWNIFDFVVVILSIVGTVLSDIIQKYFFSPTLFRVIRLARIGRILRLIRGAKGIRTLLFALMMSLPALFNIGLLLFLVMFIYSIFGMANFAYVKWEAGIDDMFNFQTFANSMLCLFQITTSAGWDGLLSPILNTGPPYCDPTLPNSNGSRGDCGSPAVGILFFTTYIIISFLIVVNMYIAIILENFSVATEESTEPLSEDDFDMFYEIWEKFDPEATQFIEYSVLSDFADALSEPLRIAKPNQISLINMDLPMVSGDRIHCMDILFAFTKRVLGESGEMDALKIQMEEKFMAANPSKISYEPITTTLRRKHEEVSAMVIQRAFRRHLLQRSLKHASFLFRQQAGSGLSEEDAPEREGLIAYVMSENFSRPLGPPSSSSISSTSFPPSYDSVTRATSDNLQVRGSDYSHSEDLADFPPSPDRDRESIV
The target in series [4] is T2, NaV1.1. Put plainly: Electrophysiological Assay (EP), patch voltage clamp, NaV1.1.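 Further: sodium current block measured at ambient temperature, holding at fully inactivating potential, 20 ms repolarization to −150 mV before test pulse, versus 0.5% DMSO control currents.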 It counts as cell-based. Conditions: HEK-293 cells, whole-cell patch clamp.
[5] abbreviates: read-out: Flux NaV1.5 IC50, Trex HEK293 cells, ANG2 dye, inactivated state.

Where two headings read alike, the source gives them in different places.

T1 sequence (Q9UQD0 whole entry): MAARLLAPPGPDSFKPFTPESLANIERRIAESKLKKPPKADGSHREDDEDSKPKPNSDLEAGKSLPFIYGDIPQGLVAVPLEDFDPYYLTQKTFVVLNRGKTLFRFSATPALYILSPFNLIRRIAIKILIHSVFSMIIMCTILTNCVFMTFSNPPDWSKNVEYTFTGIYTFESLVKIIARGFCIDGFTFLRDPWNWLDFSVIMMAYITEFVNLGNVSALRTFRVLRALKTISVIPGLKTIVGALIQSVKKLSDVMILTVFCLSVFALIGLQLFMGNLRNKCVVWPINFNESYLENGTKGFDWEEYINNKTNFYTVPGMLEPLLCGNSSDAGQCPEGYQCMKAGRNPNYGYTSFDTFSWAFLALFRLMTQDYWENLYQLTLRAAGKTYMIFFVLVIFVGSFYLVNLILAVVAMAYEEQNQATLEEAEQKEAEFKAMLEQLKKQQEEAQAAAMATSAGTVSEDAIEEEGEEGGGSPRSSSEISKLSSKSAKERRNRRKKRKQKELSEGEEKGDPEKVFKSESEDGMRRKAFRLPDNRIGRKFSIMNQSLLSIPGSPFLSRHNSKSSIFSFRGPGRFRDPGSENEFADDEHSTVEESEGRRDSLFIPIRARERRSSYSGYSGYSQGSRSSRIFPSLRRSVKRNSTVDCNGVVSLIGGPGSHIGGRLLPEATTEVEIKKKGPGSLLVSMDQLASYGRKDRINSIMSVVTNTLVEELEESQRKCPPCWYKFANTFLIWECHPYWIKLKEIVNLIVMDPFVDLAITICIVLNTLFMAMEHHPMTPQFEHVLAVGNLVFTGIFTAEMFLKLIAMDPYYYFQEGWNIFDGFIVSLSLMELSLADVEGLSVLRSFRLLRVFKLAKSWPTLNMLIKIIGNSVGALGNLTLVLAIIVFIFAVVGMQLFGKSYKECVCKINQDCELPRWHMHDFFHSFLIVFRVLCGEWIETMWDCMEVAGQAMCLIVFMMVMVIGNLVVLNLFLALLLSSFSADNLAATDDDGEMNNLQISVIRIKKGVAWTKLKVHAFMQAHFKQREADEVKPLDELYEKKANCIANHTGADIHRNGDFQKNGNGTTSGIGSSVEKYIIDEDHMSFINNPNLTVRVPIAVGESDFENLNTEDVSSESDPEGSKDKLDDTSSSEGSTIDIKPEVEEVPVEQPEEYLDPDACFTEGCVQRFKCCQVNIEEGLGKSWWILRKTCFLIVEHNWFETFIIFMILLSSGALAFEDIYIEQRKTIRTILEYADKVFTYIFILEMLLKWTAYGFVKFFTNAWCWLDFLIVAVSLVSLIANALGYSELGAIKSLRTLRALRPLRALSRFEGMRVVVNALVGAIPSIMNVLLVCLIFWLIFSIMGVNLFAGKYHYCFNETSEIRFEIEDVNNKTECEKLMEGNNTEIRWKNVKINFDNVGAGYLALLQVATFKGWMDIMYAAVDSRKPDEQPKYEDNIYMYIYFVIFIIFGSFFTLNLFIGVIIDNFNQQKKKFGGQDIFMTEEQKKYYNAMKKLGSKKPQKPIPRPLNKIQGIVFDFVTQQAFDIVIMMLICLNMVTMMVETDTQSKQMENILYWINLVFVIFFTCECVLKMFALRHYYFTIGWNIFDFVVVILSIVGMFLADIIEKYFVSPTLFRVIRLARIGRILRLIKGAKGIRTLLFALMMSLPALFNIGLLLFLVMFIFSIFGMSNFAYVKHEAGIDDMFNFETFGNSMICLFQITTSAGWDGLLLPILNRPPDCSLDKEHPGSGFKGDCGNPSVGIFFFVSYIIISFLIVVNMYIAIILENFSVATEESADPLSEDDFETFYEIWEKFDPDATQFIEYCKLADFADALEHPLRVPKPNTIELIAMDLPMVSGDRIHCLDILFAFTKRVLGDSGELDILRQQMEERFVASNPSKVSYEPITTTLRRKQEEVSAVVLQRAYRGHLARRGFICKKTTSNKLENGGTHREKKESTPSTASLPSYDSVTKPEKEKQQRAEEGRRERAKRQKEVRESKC

As a reminder, the IC50 is the point on the concentration scale where inhibition reaches its midpoint. With `O=S(=O)(Nc1cscn1)c1cc(Cl)c(NCc2cccc3ccncc23)cc1F` [Example 96, 5-chloro-2-fluoro-4-((isoquinolin-8-ylmethyl)amino)-N-(thiazol-4-yl)benzenesulfonamide 2,2,2-trifluoroacetate], the IC50 was 0.239 µM on NaV1.6 [1]; 12.6 µM at NaV1.1 [2]; 0.098 µM on NaV1.6 [3]; 16 µM at NaV1.5 (setting [5]); 10 µM on NaV1.1 [4].
`C[C@H](Oc1cc(F)c(S(=O)(=O)Nc2cscn2)cc1Cl)c1ccccc1F` [Example 101, (S)-5-chloro-2-fluoro-4-(1-(2-fluorophenyl)ethoxy)-N-(thiazol-4-yl)benzenesulfonamide]: the IC50 at NaV1.6 [1] is 0.814 µM; on NaV1.1 [2] it was 9.57 µM; at NaV1.6 [3], 0.462 µM; on NaV1.5 (setting [5]), 4.66 µM; at NaV1.1 [4], 10 µM.
For `O=S(=O)(Nc1nccs1)c1ccc(NC2(c3ccccc3)COC2)c(Cl)c1` [Example 103, 3-chloro-4-((3-phenyloxetan-3-yl)amino)-N-(thiazol-2-yl)benzenesulfonamide], the IC50 was 2.91 µM on NaV1.6 [1]; 16.6 µM on NaV1.1 [2]; 0.796 µM against NaV1.6 [3]; 28.8 µM at NaV1.5 (setting [5]); 10 µM against NaV1.1 [4].
On the same counts, the results for `O=S(=O)(Nc1nccs1)c1ccc(NC2(c3ccccc3)CCC2)c(Cl)c1` [Example 104, 3-chloro-4-((1-phenylcyclobutyl)amino)-N-(thiazol-2-yl)benzenesulfonamide] are 0.582 µM, 4.43 µM, 0.153 µM, 6.29 µM and 4.51 µM.
Turning to `O=S(=O)(Nc1nccs1)c1cc(Cl)c(NC2(c3ccccc3)CCC2)cc1F` [Example 105, 5-chloro-2-fluoro-4-((1-phenylcyclobutyl)amino)-N-(thiazol-2-yl)benzenesulfonamide], the IC50 on NaV1.6 [1] is 0.564 µM; against NaV1.1 [2], 3.73 µM; on NaV1.6 [3], 0.027 µM; on NaV1.5 (setting [5]), 10.6 µM; against NaV1.1 [4], 3.6 µM.
Take `O=S(=O)(Nc1nccs1)c1cc(Cl)c(NC2(c3ccccc3F)CCC2)cc1F` [Example 107, 5-chloro-2-fluoro-4-((1-(2-fluorophenyl)cyclobutyl)amino)-N-(thiazol-2-yl)benzenesulfonamide]: the IC50 amounted to 0.656 µM on NaV1.6 [1]; 10.3 µM against NaV1.1 [2]; 0.138 µM at NaV1.6 [3]; 7.4 µM at NaV1.5 (setting [5]); 8.62 µM on NaV1.1 [4].
On the same counts, the results for `C[C@H](Oc1cc(F)c(S(=O)(=O)Nc2nccs2)cc1Cl)c1cccc(F)c1` [Example 114, (S)-5-chloro-2-fluoro-4-(1-(3-fluorophenyl)ethoxy)-N-(thiazol-2-yl)benzenesulfonamide] are 0.977 µM, 5.05 µM, 0.255 µM, 4.64 µM and 10 µM.
Regarding `C[C@H](Oc1cc(F)c(S(=O)(=O)Nc2nccs2)cc1Cl)c1ccccc1` [Example 115, (S)-5-chloro-2-fluoro-4-(1-phenylethoxy)-N-(thiazol-2-yl)benzenesulfonamide], the IC50 on NaV1.6 [1] stood at 1.39 µM; against NaV1.1 [2], 17.5 µM; at NaV1.6 [3] it was 0.135 µM; on NaV1.5 (setting [5]), 9.93 µM; at NaV1.1 [4] it was 10 µM.
With `C[C@H](Oc1cc(F)c(S(=O)(=O)Nc2nccs2)cc1Cl)c1ccccc1Cl` [Example 117, (S)-5-chloro-4-(1-(2-chlorophenyl)ethoxy)-2-fluoro-N-(thiazol-2-yl)benzenesulfonamide], the IC50 was 0.53 µM at NaV1.6 [1]; 5.89 µM against NaV1.1 [2]; 0.055 µM against NaV1.6 [3]; 6.22 µM at NaV1.5 (setting [5]); 6.78 µM against NaV1.1 [4].
As for `C[C@H](Oc1cc(F)c(S(=O)(=O)Nc2nccs2)cc1Cl)c1c(F)cccc1F` [Example 119, (S)-5-chloro-4-(1-(2,6-difluorophenyl)ethoxy)-2-fluoro-N-(thiazol-2-yl)benzenesulfonamide], the IC50 on NaV1.6 [1] turned out to be 0.31 µM; at NaV1.1 [2], 5.72 µM; on NaV1.6 [3], 0.023 µM; at NaV1.5 (setting [5]) it was 1.82 µM; on NaV1.1 [4], 8.94 µM.
For the compound `C[C@H](Oc1cc(F)c(S(=O)(=O)Nc2cscn2)cc1Cl)c1c(F)cccc1F` [Example 120, (S)-5-chloro-4-(1-(2,6-difluorophenyl)ethoxy)-2-fluoro-N-(thiazol-4-yl)benzenesulfonamide], the IC50 is 1.39 µM against NaV1.6 [1]; 24.3 µM against NaV1.1 [2]; 0.717 µM against NaV1.6 [3]; 2.42 µM on NaV1.5 (setting [5]); 10 µM against NaV1.1 [4].
`O=S(=O)(Nc1nccs1)c1cc(Cl)c(OCc2ccccc2F)cc1F` [Example 122, 5-chloro-2-fluoro-4-((2-fluorobenzyl)oxy)-N-(thiazol-2-yl)benzenesulfonamide]: the IC50 came out at 1.65 µM on NaV1.6 [1]; 30 µM against NaV1.1 [2]; 0.121 µM at NaV1.6 [3]; 30 µM at NaV1.5 (setting [5]); 10 µM on NaV1.1 [4].
`C[C@H](Oc1cc(F)c(S(=O)(=O)Nc2cscn2)cc1Cl)c1ccccc1Cl` [Example 123, (S)-5-chloro-4-(1-(2-chlorophenyl)ethoxy)-2-fluoro-N-(thiazol-4-yl)benzenesulfonamide]: the IC50 against NaV1.6 [1] amounted to 1.17 µM; on NaV1.1 [2], 5.78 µM; at NaV1.6 [3], 0.716 µM; on NaV1.5 (setting [5]), 2.15 µM; against NaV1.1 [4], 10 µM.
Consider `O=S(=O)(Nc1cscn1)c1c(F)cc(NCc2c(Cl)cccc2CN2CC(F)C2)cc1F` [Example 129, 4-((2-chloro-6-((3-fluoroazetidin-1-yl)methyl)benzyl)amino)-2,6-difluoro-N-(thiazol-4-yl)benzenesulfonamide], for which the IC50 on NaV1.6 [1] came out at 0.322 µM; against NaV1.1 [2], 4.24 µM; at NaV1.6 [3], 0.252 µM; on NaV1.5 (setting [5]) it was 30 µM; against NaV1.1 [4], 10 µM.
On the same counts, the results for `Cc1c(NCc2c(F)cccc2CN2CC(F)C2)ccc(S(=O)(=O)Nc2cscn2)c1F` [Example 130, 2-fluoro-4-((2-fluoro-6-((3-fluoroazetidin-1-yl)methyl)benzyl)amino)-3-methyl-N-(thiazol-4-yl)benzenesulfonamide] are 0.307 µM, 11.7 µM, 0.1 µM, 17.7 µM and 10 µM.
On the same counts, the results for `O=S(=O)(Nc1cccc(F)n1)c1cc(Cl)c(NCc2c(F)ccc(F)c2CN2CCC2)cc1F` [Example 131, 4-((2-(azetidin-1-ylmethyl)-3,6-difluorobenzyl)amino)-5-chloro-2-fluoro-N-(6-fluoropyridin-2-yl)benzenesulfonamide] are 0.376 µM, 8.33 µM, 0.126 µM, 10.9 µM and 10 µM.
As to `O=S(=O)(Nc1cscn1)c1ccc(NCc2c(F)cccc2CN2CC(F)C2)c(Cl)c1F` [Example 133, 3-chloro-2-fluoro-4-((2-fluoro-6-((3-fluoroazetidin-1-yl)methyl)benzyl)amino)-N-(thiazol-4-yl)benzenesulfonamide], the IC50 was 0.418 µM at NaV1.6 [1]; 6.36 µM against NaV1.1 [2]; 0.122 µM against NaV1.6 [3]; 9.21 µM on NaV1.5 (setting [5]); 10 µM against NaV1.1 [4].
In the case of `O=S(=O)(Nc1nccs1)c1cc(Cl)c(OCc2ccccc2CN2CCC2)cc1F` [Example 136, 4-((2-(azetidin-1-ylmethyl)benzyl)oxy)-5-chloro-2-fluoro-N-(thiazol-2-yl)benzenesulfonamide], the IC50 at NaV1.6 [1] worked out at 0.384 µM; against NaV1.1 [2] it was 19.6 µM; at NaV1.6 [3], 0.041 µM; at NaV1.5 (setting [5]), 23.7 µM; on NaV1.1 [4], 10 µM.
For `Cc1cc(S(=O)(=O)Nc2cscn2)c(F)cc1NCc1c(F)cccc1CN1CC(F)C1` [Example 137, 2-fluoro-4-((2-fluoro-6-((3-fluoroazetidin-1-yl)methyl)benzyl)amino)-5-methyl-N-(thiazol-4-yl)benzenesulfonamide], the IC50 against NaV1.6 [1] came to 0.588 µM; against NaV1.1 [2], 30 µM; on NaV1.6 [3], 0.353 µM; at NaV1.5 (setting [5]), 30 µM; against NaV1.1 [4], 10 µM.
On to `O=S(=O)(Nc1cccc(F)n1)c1cc(Cl)c(NCc2c(F)cccc2CN2CCC2)cc1F` [Example 138, 4-((2-(azetidin-1-ylmethyl)-6-fluorobenzyl)amino)-5-chloro-2-fluoro-N-(6-fluoropyridin-2-yl)benzenesulfonamide], for which the IC50 against NaV1.6 [1] amounted to 0.151 µM; on NaV1.1 [2] it was 5.76 µM; at NaV1.6 [3], 0.043 µM; at NaV1.5 (setting [5]), 9.85 µM; against NaV1.1 [4], 10 µM.
With `CCC(Nc1cc(F)c(S(=O)(=O)Nc2nccs2)cc1Cl)c1ccccc1` (centres unmarked) [Example 141, 5-chloro-2-fluoro-4-(1-phenylpropylamino)-N-(thiazol-2-yl)benzenesulfonamide], the half-inhibitory concentration (IC50) was determined as 0.479 µM against NaV1.6 [1]; 3.33 µM against NaV1.1 [2]; 0.031 µM against NaV1.6 [3]; 21 µM against NaV1.5; 0.277 µM at NaV1.1 [4].
With `CC(C)CC(Nc1cc(F)c(S(=O)(=O)Nc2nccs2)cc1Cl)c1ccccc1` (centres unmarked) [Example 143, 5-chloro-2-fluoro-4-(3-methyl-1-phenylbutylamino)-N-(thiazol-2-yl)benzenesulfonamide], the IC50 was found to be 0.528 µM on NaV1.6 [1]; 2.49 µM against NaV1.1 [2]; 0.027 µM at NaV1.6 [3]; 7.01 µM at NaV1.5; 0.159 µM on NaV1.1 [4].

The values above are taken from patent US11174268B2, “Benzenesulfonamide compouds and their use as therapeutic agents” (Xenon Pharmaceuticals Inc., priority 2016, dated 2021).
